# Measured values as given in US20160207950A1, “ORGA[…]-2-CYANO-1-HYDROXYPROPAN-2-YL FOR USE AS ANTHELMINTICS” (UNIVERSITÄT ZÜRICH, priority 2013, published 2016).
# Where two headings read alike, the source gives them in different places.
# Key:
# [1] = tested on: human cervical cancer HeLa; test: fluorometric cell viability assay (Resazurin), toxicity towards HeLa; type: cell-based; conditions: 2 days treatment
# Protocol: Cell Culture: Human cervical carcinoma cells (HeLa) were cultured in DMEM (Gibco) supplemented with 5% fetal calf serum (FCS, Gibco), 100 U/ml penicillin, 100 μg ml streptomycin at 37° C. and 5% CO2. The normal human fetal lung fibroblast MRC-5 cell line was maintained in F-10 medium (Gibco) supplemented with 10% FCS (Gibco), 200 mmol/l L-Glutamine, 100 U/ml penicillin, and 100 μg/ml streptomycin at 37° C. and 5% CO2. Toestablish the anticancer potential of the compounds they were tested in one cell line, namely HeLa by a fluorometric cell viability assay using Resazurin (Promocell GmbH). Compounds showing cytotoxicity were then tested on normal MRC-5 cells. 1 day before treatment, cells were plated in triplicates in 96-well plates at a density of 4×10^3 cells/well in 100 μl for HeLa and 7×10^3 cells/well for MRC-5 cells. Cells were treated with increasing concentrations of the compounds for 2 days. After 2 days, medium and drug were removed and […] fresh medium containing Resazurin (0.2 mg/ml final concentration) were added. After 4 h of incubation at 37° C., the highly red fluorescent dye resorufin's fluorescence was quantified at 590 nm emission with 540 nm excitation wavelength in the SpectraMax M5 microplate Reader. […]
# C. elegans = C. elegans movement inhibition assay
# Protocol: C. elegans movement inhibition assay: Asynchronous N2 C. elegans worms (Bristol) were maintained on nematode growth medium (NGM) agar, seeded with a lawn on OP50 E coli as a food-source, according to standard protocol (Maintenance of C. elegans; Stiernagle, T., Ed.; WormBook, 2006.). Worms were harvested from NGM plates by washing with M9 buffer (42 mmol/l Na2HPO4, 22 mmol/l KH2PO4, 86 mmol/l NaCl and 1 mmol/l MgSO4), aspiration and collection in a 10 mL tube (Falcon). The average number of worms in 5 μL of this suspension was calculated by transferring 4×5 μL aliquots to a glass slide (Menzel Glaser), and worms were enumerated under a compound microscope (Olympus CH30). To adjust the suspension to contain 1 worm per μL, M9 buffer was either added or removed after pelleting worms at 600× g for 30 sec.
# Dilution of test compounds, Zolvix (monepantel) and DMSO for working stock solutions and 96 well plate set-up for liquid screen: A volume of 70 μL of M9 buffer was added to each well in a 96-well plate, using a multichannel pipettor. A volume of 20 μL of worm suspension was added to each well using a single-channel pipettor, with a trimmed pipette tip (increased aperture to minimize damage to worms). […]
# Quantitative worm mobility scoring: Immobile worms were counted as a percentage of total worms in each well using an Olympus SZ30 dissecting microscope. […]
# Haemonchus Contortus = test: Activity in vitro against Haemonchus contortus (egg hatch / larval development)
# Protocol: (§1) Activity in Vitro against Haemonchus contortus & Trichostrongylus colubriformis (Gastrointestinal nematodes).
# (§2) Freshly harvested and cleaned nematode eggs are used to seed a suitably formatted microplate containing the test substances to be evaluated for antiparasitic activity. Each compound is tested by serial dilution in order to determine its MED. The test compounds are diluted in nutritive medium allowing the full development of eggs through to 3rd instar larvae. The plates are incubated for 6 days at 28° C. and 60% relative humidity (RH). Egg-hatching and ensuing larval development are recorded to identify a possible nematocidal activity. Efficacy is expressed in percent reduced egg hatch, reduced development of L3, or paralysis & death of larvae of all stages.
# [2] = tested on: Trychostrongylus colubriformis; test: Activity in vitro against Trichostrongylus colubriformis (egg hatch / larval development)
# Protocol: as §1, §2
Substance,IC50 [1] [µM],mobility of the C. elegans worms (in words) (C. elegans; 50 μM),Mobility in C. elegans at 50 μM (C. elegans; 24 h incubation) [%],Number of L3 H. contortus/100 μM (H. contortus),Activity against Haemonchus Contortus at 10 [mg/mL] (Haemonchus Contortus; listed as compound 1),Activity against Haemonchus Contortus at 10 [mg/mL] (Haemonchus Contortus; listed as drawing 26) [%],Activity against Trychostrongylus colubriformis at 10 [mg/mL] ([2]; listed as compound 1),Activity against Trychostrongylus colubriformis at 10 [mg/mL] ([2]; listed as drawing 26) [%],Activity against Haemonchus Contortus at 10 [mg/mL] (Haemonchus Contortus) [%],efficacy against dirofilaria immitis (in words) (Dirofilaria immitis),Activity against Dirofilaria immitis at 10 [mg/mL] (Dirofilaria immitis; 10 mg/mL) [%],Activity against Trychostrongylus colubriformis at 10 [mg/mL] [2] [%]
N-(2-cyano-1-(5-cyano-2-(trifluoromethyl)phenoxy)propan-2-yl)ferroceneamide [Compound 1],93.2,significantly reduced,2,>100,up to 69%,69,up to 69%,68,,,,
N-(2-cyano-1-(5-cyano-2-(trifluoromethyl)phenoxy)propan-2-yl)ruthenoceneamide [Compound 1a],> 100,,,,,,,,0,moderate efficacy,30,0
